Laboratory results taken from patent publication US11712414B2, “Oral pharmaceutical composition for preventing or treating dry eye syndrome comprising rebamipide or a prodrug thereof” (SAMJIN PHARMACEUTICAL CO., LTD., priority 2013, dated 2023).

Test system: animal model of dry eye syndrome
Test: Efficacy analysis of drugs using an animal model of dry eye syndrome (overall, FIGS. 1 to 15)
Type: in vivo, C57BL/6 mice
Conditions: oral administration, overall statement
From the text: Experimental Example 1: Efficacy Analysis of Drugs Using an Animal Model of Dry Eye Syndrome
<1-1> Construction of an Animal Model of Dry Eye Syndrome
Eight-week old male C57BL/6 mice (Charles River laboratories) were quarantined for one week and divided into several groups of eight animals evenly according to their average body weight and standard deviation.
For experimental groups (administered with Examples […]), dry eye syndrome was induced by subcutaneous injection of scopolamine (2.5 mg/mL, Sigma-Aldrich) for 10 days with exposure to air draft (25-40% relative humidity) for 18 hours per day. Then, mice were orally administered with the suspensions of Examples 1 to 29, twice a day for total 10 days, respectively.
Meanwhile, for a normal group, neither the drug nor the vehicle was administered to normal mice. And, for a control group, the vehicle was administered to the mice with dry eye syndrome.

**Q.** Which “therapeutic effects on dry eye syndrome” value does the source give for `O=C(NC(Cc1cc(=O)[nH]c2ccccc12)C(=O)O)c1ccc(Cl)cc1` (stereo not shown) [Rebamipide, 2-(4-chlorobenzoyl-amino)-3-[2(1H)-quinolon-4-yl]propionic acid] here?
**A.** exhibits therapeutic effects on dry eye syndrome
